{"source": "patent US20080220416A1", "about": "“Compositions for Inhibiting Cell Growth and Inducing Apoptosis in Cancer Cells and Methods of Use Thereof” (THE BOARD OF TRUSTEES OF THE UNIVERSITY OF ILLINOI, priority 2004, published 2008)", "key": {"NOXA": {"system": "NOXA", "assay": "NOXA in whole cell protein extracts of subcutaneous C8161 tumors", "assay_type": "in vivo, Nude mice", "conditions": "2.5 mg/kg; versus PBS", "procedure": "Initially, 1×10^6 aggressive melanoma cells (C8161) (ATCC, Rockville, Md.) were injected subcutaneously in Nude (nulnu) mice (6-7 weeks old; Harlan, Indianapolis, Ind.) on day 0, and the tumors were allowed bearing groups (5 mice/group) and injected with either (a) PBS as control; (b) bortezomib at 1.25 mg/kg; or (c) bortezomib at 2.5 mg/kg. Treatment began on day 8 when tumors were palpable and injected four times peri-tumorally. On day 20, mice were euthanized and tumors dissected from surrounding tissue and weighted. […] Expanding the in vitro studies to in vivo studies, subcutaneous tumors produced in Nude mice (as described above in Example 7) were tested to detect NOXA using whole cell protein extracts as described above."}, "[1]": {"system": "C8161 melanoma tumor xenograft", "assay": "C8161 melanoma tumor xenograft in Nude mice, z-Leu-Leu-Nle-CHO injections", "assay_type": "in vivo", "description": "Assessment of tumor formation in Nude mice was performed by adapting the method described in Hendrix, M. J. et al., 1997, Am J Pathol 150:483-495. Tumors were established in Nude mice as follows. Briefly, 1×10^6 aggressive melanoma cells (C8161) (ATCC, Rockville, Md.) were injected subcutaneously in Nude mice on day 0, and the tumors were allowed to grow for 1 week. Beginning on day 8, mice received injections (100 μl) of DMSO carrier only (control group) or z-Leu-Leu-Nle-CHO (1 mM in DMSO) (Calbiochem, LaJolla, Calif.) (experimental group) every other day for 1 week. Tumor sizes (mm^2) were determined on day 7 prior to injections with or z-Leu-Leu-Nle-CHO or DMSO, and on day 14. Average tumor size for both groups was normalized, and size of tumors at 2 weeks was averaged. Detection of apoptosis in tissue sections was performed using TUNEL staining as described in Wrone-Smith et al, 1997, Am J Pathol. 151:1321-9."}, "melanoma cell lines": {"system": "melanoma cell lines", "assay": "Apoptosis of melanoma cell lines treated with z-Leu-Leu-Nle-CHO (Annexin V FITC / propidium iodide flow cytometry)", "assay_type": "cell-based, human", "conditions": "each of nine melanoma cell lines; 10 μM for 24 h", "description": "The effect of z-Leu-Leu-Nle-CHO on apoptosis was tested in vitro using normal human melanocytes and several melanoma cell cultures. Prior to testing, cutaneous (C8161, SK-MeI-28, SK-MeI-100, SK-MeI-5, C81-61), uveal or ocular (MUM2B, MUM2C, OCM-1A), and pulmonary metastases (RJ002L) melanoma cell lines were maintained in RPMI supplemented with 10% FBS. Normal human melanocytes were isolated from neonatal foreskins as previously described (Qin J et al., 2004, Mol Cancer Ther 3:895-902) and cultured with medium 154 containing growth supplements (Cascade Biologics, Portland, Oreg.).\nTo assess the effect of z-Leu-Leu-Nle-CHO on the cell lines, the cells were grown in suitable culture media. Highly proliferating cells (i.e., cells that had reached approximately 30% confluency) were exposed to z-Leu-Leu-Nle-CHO as described below. […]\nFollowing treatment with z-Leu-Leu-Nle-CHO, the melanoma and melanocyte cell cultures were assayed for apoptotic cells using the APO TARGET Annexin V FITC staining kit (Biosource, Camarillo, Calif.) according to the manufacturer's instructions followed by flow cytometric analysis using FACScaliber (Becton Dickinson, Palo Alto, Calif.) as described in Qin, J. et al., 2001, Nat Med 7:385-386. In some cases, cell cycle and apoptosis analysis was measured using propidium iodide staining and flow cytometry as described. […]"}, "[2]": {"system": "T47D:C42 breast cancer cells", "assay": "z-Leu-Leu-Nle-CHO plus Paclitaxel, growth inhibition of T47D:C42 cells", "assay_type": "cell-based, human", "conditions": "0-0.8 μM with Paclitaxel, 48 h", "description": "(§1) Three different types of breast cancer cells were contacted with varying concentrations of z-Leu-Leu-Nle-CHO (0-0.8 μM) and the mitotic poison Paclitaxel (0.01-1 μM). MDA-MB231 cells were obtained from ATCC (Rockville, Md.). T47D:C42 and T47D:A18 cells were a kind gift of Debra Tonetti (University of Illinois-Chicago). MDA-MB231 cells were cultured in DMEM medium with 10% FBS. T47D:C42 and T47D:A18 cells were propagated in RPMI 1640 with 10% FBS, 100 μM non-essential amino acid and 6 ng/ml insulin. Gamma-secretase inhibitor z-Leu-Leu-Nle-CHO (Calbiochem 565750) was dissolved in DMSO, aliquoted and stored at −80° C. Paclitaxel (Sigma, St. Louis Mo.) was dissolved in DMSO, aliquoted and stored at −80° C.\n(§2) To determine whether z-Leu-Leu-Nle-CHO treatment potentiates the effect of Paclitaxel on human breast cancer cells, MDA-MB231, T47D:C42 and T47D:A18 cells were treated for 48 h with 0-0.8 μM z-Leu-Leu-Nle-CHO and various concentrations of Paclitaxel (0.008-1 μM) Following the z-Leu-Leu-Nle-CHO and Paclitaxel treatment, the cells were tested for growth inhibition as described above in Example 13."}, "Notch-1": {"system": "Notch-1", "assay": "Notch-1 cleavage in CaSki cells (Western blot N^TM, N^IC)", "assay_type": "cell-based, human", "conditions": "0-5 μM, 24 h", "description": "The CaSki human cervical cancer cells were incubated for 24 h with various concentrations (0-5 μM) of the dual inhibitor z-Leu-Leu-Nle-CHO (Calbiochem) (FIG. 13A). The cells were then collected and assayed for Notch-1 and Notch-4 expression by Western blotting. Immunoblotting was performed using antibodies to the transmembrane portion of Notch-1 (N^TM) (Santa Cruz Biotechnology (Santa Cruz, Calif.)), or the intracellular portion of Notch-1 (N^IC) (Abcam, Inc. (Cambridge, Mass.)). Secondary anti-goat, anti-rnouse, anti-rabbit and anti-rat antibodies (IgG-HRP) were purchased from Vector Laboratories (Burlingame, Calif.), Santa Cruz Biotechnology and Amersham Biosciences. For Western blot analysis, equal amounts of protein extracted from each sample (20 μg) were loaded into pre-cast 7% NuPAGE Tris-acetate gels or 4-12% NuPAGE Bis-tris gels (Invitrogen). Proteins were separated by SDS-PAGE and transferred to polyvinylidene difluoride membranes (Bio-Rad, Hercules, Calif.) using Invitrogen's buffering system. The membranes were incubated with the indicated primary antibodies, washed, and visualized by incubation with horseradish peroxidase-conjugated secondary antibodies and chemiluminescent reagents (Roche Diagnostics Corporation, Indianapolis, Ind.)."}, "[3]": {"system": "T47D:A18 breast cancer cells", "assay": "z-Leu-Leu-Nle-CHO plus Paclitaxel, growth inhibition of T47D:A18 cells", "assay_type": "cell-based, human", "conditions": "0-0.8 μM with Paclitaxel, 48 h", "description": "as §1, §2"}}, "note": "Square brackets hold non-standard residues; d marks the D form. Peptide text beside a SMILES is read from it. * marks the point of attachment. Nle = CCCC[C@H](N)C(=O)O; Cbz = O=C(OCc1ccccc1)*", "data": [{"compound": "CC(C)C[C@H](NC(=O)[C@H](Cc1ccccc1)NC(=O)c1cnccn1)B(O)O", "note": "[bortezomib, N-(2-pyrazine)carbonyl-L-phenylalanine-L-leucine boronic acid]", "values": [{"measurement": "NOXA in treated tumors", "setting": "NOXA", "value": "did induce NOXA in these treated tumors"}]}, {"compound": "CCCC[C@@H](C=O)NC(=O)[C@H](CC(C)C)NC(=O)[C@H](CC(C)C)NC(=O)OCc1ccccc1", "note": "[z-Leu-Leu-Nle-CHO, N-benzyloxycarbonyl-leucyl-leucyl-norleucinal] (Cbz-Leu-Leu-[Nle]-aldehyde)", "values": [{"measurement": "average tumor size", "setting": "[1]; 1 mM in DMSO, 100 μl every other day for 1 week, compared to DMSO, p=0.046, n=11", "value": "significantly reduced tumor size"}, {"measurement": "apoptosis in tumor by immunofluorescent TUNEL assay", "setting": "[1]; 1 week of treatment, 1 mM, versus DMSO carrier", "value": "High levels of apoptosis"}, {"measurement": "induction of apoptosis", "setting": "melanoma cell lines", "value": "triggered a dose-dependent increase in apoptosis"}, {"measurement": "effect on Paclitaxel cell growth inhibition", "setting": "[2]", "value": "potentiated the effects of Paclitaxel on cell growth inhibition"}, {"measurement": "cleaved and transmembrane Notch-1", "setting": "Notch-1", "value": "dose-dependent reduction in cleaved Notch-1"}, {"measurement": "effect on Paclitaxel cell growth inhibition", "setting": "[3]", "value": "potentiated the effects of Paclitaxel on cell growth inhibition"}]}]}
